Results reported in patent US9447122B2, “Arginase inhibitors and methods of use thereof” (AstraZeneca AB, priority 2010, dated 2016).
Structures can show the parent of a compound that is named as a salt. Where two headings read alike, the source gives them in different places.

Assays:
human arginase I = target: T1, human arginase I (Homo sapiens, UniProt P05089); experiment: Arginase inhibition, QuantiChrom colorimetric urea assay, IC50 converted to Ki; format: biochemical
T1 sequence (P05089 1-322): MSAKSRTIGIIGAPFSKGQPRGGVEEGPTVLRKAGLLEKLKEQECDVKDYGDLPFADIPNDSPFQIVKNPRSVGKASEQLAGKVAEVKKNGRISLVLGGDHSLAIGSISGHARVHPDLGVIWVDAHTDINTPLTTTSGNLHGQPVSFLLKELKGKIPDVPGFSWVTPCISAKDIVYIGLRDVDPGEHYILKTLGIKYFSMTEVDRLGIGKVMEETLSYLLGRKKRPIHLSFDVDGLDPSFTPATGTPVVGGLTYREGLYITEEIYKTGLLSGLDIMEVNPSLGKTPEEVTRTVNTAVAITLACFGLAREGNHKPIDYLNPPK
Protocol: (§1) For some compounds, their inhibitory potency at pH 7.5 was compared to the inhibitory potency of ABH at pH 7.5.
(§2) Quantitative determination of arginase activity was performed in a 96-well format by a colorimetric method using the QuantiChrom™ Arginase Assay Kit available from BioAssay Systems (Hayward, Calif., Catalog No. DARG-200) according to the manufacturer's protocol. Modifications were made to reagent quantities to suit the assaying of a highly purified sample.
(§3) The intensity of the color was directly proportional to the arginase activity in the sample.
(§4) The rate of urea production was measured in the presence of twelve different concentrations of each potential inhibitor compound. In a typical assay, seven different compounds were tested relative to a control inhibitor (e.g. ABH) against one enzyme (either human ArgI or human ArgII) at a particular pH (either 9.5 or 7.5). The pH of the solution was controlled using an appropriate pH buffering compound at 60 mM concentrations; for example, 60 mM glycine (pH 9.5) or 60 mM HEPES (pH 7.5). The half maximal inhibitory concentration (IC50) was determined by constructing a dose-response curve.

human arginase II = target: T2, human arginase II (Homo sapiens, UniProt P78540); experiment: as above; format: biochemical
T2 sequence (P78540 23-354): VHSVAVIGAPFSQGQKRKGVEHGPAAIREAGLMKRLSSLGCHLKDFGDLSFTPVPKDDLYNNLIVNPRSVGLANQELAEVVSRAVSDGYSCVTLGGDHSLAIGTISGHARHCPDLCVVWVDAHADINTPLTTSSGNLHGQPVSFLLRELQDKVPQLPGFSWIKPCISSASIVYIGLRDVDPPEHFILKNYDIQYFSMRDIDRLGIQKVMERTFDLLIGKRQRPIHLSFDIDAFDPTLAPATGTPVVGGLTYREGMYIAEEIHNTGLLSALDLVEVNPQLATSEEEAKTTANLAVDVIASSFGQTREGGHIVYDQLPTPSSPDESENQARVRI
Protocol: as §1, §2, §3, §4

Arg I and/or Arg II = experiment: pH effect: inhibitory potency at pH 7.5 compared with pH 9.5; format: biochemical, human; conditions: for increased potency for at least one isozyme: Table 2, pH 7.5 vs pH 9.5; for potency at pH 7.5 as compared to pH 9.5, arginases: both or at least one of the arginases
Protocol: as §1
as §4, with “curve. As IC50 values are dependent upon the measurement conditions, the IC50 values were converted to the inhibitor binding affinity (K1) using the Cheng-Prusoff equation and the affinity constant (Km) of L-arginine which was estimated with the same activity assay (see, e.g., Cheng et al., 1973, Biochem. Pharmacol. 22:3099-108).” for “curve.”

arginase = target: T3, arginase (Homo sapiens, UniProt P78540); conditions: literature; cited from earlier work
T3 sequence (P78540 23-354): T2 sequence (P78540 23-354)

[1] = tested on: opossum internal anal sphincter muscle; conditions: cited from earlier work
guinea pigs = conditions: nebulizer treatment, allergic asthma model; cited from earlier work
[2] = tested on: rabbit and human penile corpus cavernosum; conditions: rabbit and human tissue; cited from earlier work
live male rabbits = conditions: cited from earlier work
[3] = tested on: corpus cavernosum of the diabetic person; conditions: ex vivo; cited from earlier work
female rabbits = conditions: cited from earlier work
[4] = tested on: animal model of multiple sclerosis (experimental autoimmune encephalomyelitis); conditions: cited from earlier work
Rats = experiment: Myocardial ischemia-reperfusion injury, infarct size IA/AR; format: in vivo; conditions: rat, 2 hrs reperfusion
Protocol: Rats were intraperitoneally (IP) anesthetized to effect with pentobarbital (˜50 mg/kg), shaved and positioned in dorsal recumbence, intubated and ventilated (˜90 breaths/min, ˜2.5 mL tidal volume with 95% O2/5% CO2) with an adjustable small animal ventilator (Harvard Apparatus). Anesthesia was maintained with a continuous sodium pentobarbital infusion (to effect, ˜3 to 5 mg/kg/h, IV) until completion of the study via an indwelling catheter placed in a peripheral vein (e.g., femoral). Body temperature was continuously monitored throughout the duration of the surgical/experimental procedures via a rectal probe, and was maintained within the physiological range via a heated temperature-controlled (closed-loop) small animal surgical table/control unit (Vestavia Scientific).
Subsequently, transthoracic needle electrodes forming a single-lead ECG (e.g., lead II) were placed. Once a surgical plane of anesthesia had been reached, a femoral artery was isolated, dissected free from the surrounding tissue, and cannulated with a 2F high-fidelity micromanometer catheter (Millar Instruments). In order to record arterial/systemic pressures, this catheter was advanced towards the abdominal aorta. An in-dwelling catheter was also placed in a vein (i.e., jugular) for administration of the test article/vehicle, or stains (see below).
Finally, the animals were placed in right-lateral recumbence and the heart was exposed by a left-side thoracotomy/pericardiotomy. Ligatures were loosely placed (using a taper-point needle) around the proximal section of the left anterior descending artery (LAD). Tightening of these snares (via small pieces of polyethylene tubing) rendered a portion of myocardium temporarily ischemic.
Following surgical preparation, the animals were allowed to reach hemodynamic stability (for approximately 15 min), and baseline data was collected. It should be noted that in order to ensure experimental/data homogeneity, all animals must have satisfied the following entry criteria: heart rate >320 bpm and mean arterial pressure >80 mmHg. The anesthetic regime may be adjusted in order to ensure proper anesthesia/analgesia and to satisfy such inclusion criteria.
After hemodynamic stabilization and baseline measurements, the animals were treated with either vehicle or test article delivered as an intravenous bolus. Subsequently (approximately 15 min post-dosing), the animals were subjected to an acute 30 min ischemic insult by tightening of the LAD coronary artery snare. Myocardial ischemia was visually confirmed both by the appearance of cyanotic changes in distal distributions of the LAD as well as by the onset of electrocardiographic changes. After approximately 30 min of induced ischemia, the coronary snares were released and the previously ischemic myocardium was reperfused for up to 2 hrs. Treatments were not administered during either the ischemia and/or reperfusion periods. It should also be noted that in order to minimize any possible confounding effects on indices of myocardial injury, non-self-resolving malignant arrhythmias/rhythms (e.g., ventricular tachycardia/fibrillation) developing during reperfusion were considered terminal (i.e., the experiment was terminated prematurely).
At the completion of the protocol, irreversible myocardial injury (i.e., infarction) resulting from the I/R insult was evaluated. […]

prostate cancer = conditions: cited from earlier work
breast cancer = conditions: cited from earlier work
[5] = Table 2, pH 7.5, read-out: human arginase I pH 7.5, Ki assigned value
[6] = Table 2, pH 9.5, read-out: human arginase I pH 9.5, Ki assigned value
[7] = Table 2, pH 7.5, read-out: human arginase II pH 7.5, Ki assigned value
[8] = Table 2, pH 9.5, read-out: human arginase II pH 9.5, Ki assigned value
[9] = 1 mg/kg iv bolus about 15 min before 30 min ischemia
[10] = 3 mg/kg iv bolus about 15 min before 30 min ischemia
[11] = Table 3, pH 7.5, read-out: human Arginase I pH 7.5, Ki assigned value
[12] = Table 3, pH 9.5, read-out: human Arginase I pH 9.5, Ki assigned value
[13] = Table 3, pH 7.5, read-out: human Arginase II pH 7.5, Ki assigned value
[14] = Table 3, pH 9.5, read-out: human Arginase II pH 9.5, Ki assigned value

N[C@@H](CCCCB(O)O)C(=O)O [ABH, 2(S)-amino-6-boronohexanoic acid]
Ki (human arginase I; [5]): 51 to 100 nM
Ki (human arginase I; [6]): 11 to 50 nM
Ki (human arginase II; [7]): 101 to 250 nM
Ki (human arginase II; [8]): 11 to 50 nM
increased potency for at least one isozyme (Arg I and/or Arg II): no ^b
potency at pH 7.5 as compared to pH 9.5, arginases (Arg I and/or Arg II): decrease in inhibitory potency
inhibitory potency at pH 7.5 vs pH 9.5 (arginase): much lower at pH 7.5 than at pH 9.5
relaxation of internal anal sphincter muscle [1]: relax this muscle
airway hyperresponsiveness (guinea pigs): prevents airway hyperresponsiveness
NO-dependent relaxation of corpus cavernosum [2]: enhances the NO-dependent relaxation
erectile response (live male rabbits): enhances the erectile response
NO biosynthesis [3]: restores NO biosynthesis
engorgement response in the genitalia (female rabbits): enhances the engorgement response
disease score [4]: improves the disease score

NC(CCCCB(O)O)(CCCC1CCNCC1)C(=O)O (centres unmarked) [Comparative Example 1, reference compound]
Ki (human arginase I; [5]): 101 to 250 nM
Ki (human arginase I; [6]): 11 to 50 nM
Ki (human arginase II; [7]): > 400 nM
Ki (human arginase II; [8]): < 10 nM
increased potency for at least one isozyme (Arg I and/or Arg II): no ^b
potency at pH 7.5 as compared to pH 9.5, arginases (Arg I and/or Arg II): lower potencies

NC(CCCCB(O)O)(CCCC1CCN(Cc2ccc(Cl)c(Cl)c2)CC1)C(=O)O (centres unmarked) [Comparative Example 2, reference compound]
Ki (human arginase I; [5]): 101 to 250 nM
Ki (human arginase I; [6]): 11 to 50 nM
Ki (human arginase II; [7]): 101 to 250 nM
Ki (human arginase II; [8]): 11 to 50 nM
increased potency for at least one isozyme (Arg I and/or Arg II): no ^b
potency at pH 7.5 as compared to pH 9.5, arginases (Arg I and/or Arg II): decreased potencies

NC(CCCCB(O)O)(CCCC1CCN(Cc2ccc(F)cc2)CC1)C(=O)O (centres unmarked) [Comparative Example 3, reference compound]
Ki (human arginase I; [5]): 251 to 400 nM
Ki (human arginase I; [6]): 11 to 50 nM
Ki (human arginase II; [7]): 251 to 400 nM
Ki (human arginase II; [8]): 11 to 50 nM
increased potency for at least one isozyme (Arg I and/or Arg II): no ^b
potency at pH 7.5 as compared to pH 9.5, arginases (Arg I and/or Arg II): decreased potencies

NC(CCCCB(O)O)(CCCN1CCNCC1)C(=O)O (centres unmarked) [Comparative Example 4, 2-Amino-6-borono-2-(3-(piperazine-1-yl)propyl)hexanoic acid trifluoroacetate salt, reference compound]
Ki (human arginase I; [5]): 11 to 50 nM
Ki (human arginase I; [6]): 51 to 100 nM
change of human arginase I inhibitory potency (human arginase I; pH decreased from 9.5 to 7.5): increased potency
Ki (human arginase II; [7]): > 400 nM
Ki (human arginase II; [8]): 11 to 50 nM
increased potency for at least one isozyme (Arg I and/or Arg II): yes ^a

NC(CCCCB(O)O)(CCCN1CCN(Cc2ccc(Cl)c(Cl)c2)CC1)C(=O)O (centres unmarked) [Example 8]
Ki (human arginase I; [5]): < 10 nM
Ki (human arginase I; [6]): 11 to 50 nM
Ki (human arginase II; [7]): 11 to 50 nM
Ki (human arginase II; [8]): 11 to 50 nM
Mean IA/AR (%) (Rats; [9]): 32%
Mean IA/AR (%) (Rats; [10]): 29%

CS(=O)(=O)c1ccc(CN2CCN(CCCC(N)(CCCCB(O)O)C(=O)O)CC2)cc1 (centres unmarked) [Example 10]
Ki (human arginase I; [11]): < 10 nM
Ki (human arginase I; [12]): 11 to 50 nM
Ki (human arginase II; [13]): 11 to 50 nM
Ki (human arginase II; [14]): 11 to 50 nM
Mean IA/AR (%) (Rats; [9]): 24%
Mean IA/AR (%) (Rats; [10]): 22%
Mean IA/AR (%) (Rats; 10 mg/kg iv bolus about 15 min before 30 min ischemia): 17%

NC(CCCCB(O)O)(CCCN1CCC(NC(=O)Nc2ccc(Cl)c(Cl)c2)C1)C(=O)O (centres unmarked) [Example 112]
Ki (human arginase I; [11]): < 10 nM
Ki (human arginase I; [12]): < 10 nM
Ki (human arginase II; [13]): < 10 nM
Ki (human arginase II; [14]): 11 to 50 nM

NC(CCCCB(O)O)(CCCN1CCC(NS(=O)(=O)c2ccc(Cl)c(Cl)c2)C1)C(=O)O (centres unmarked) [Example 114]
Ki (human arginase I; [11]): < 10 nM
Ki (human arginase I; [12]): 11 to 50 nM
Ki (human arginase II; [13]): < 10 nM
Ki (human arginase II; [14]): 11 to 50 nM

NC(CCCCB(O)O)(CCCn1cnc2ccccc21)C(=O)O (centres unmarked) [Example 116]
Ki (human arginase I; [11]): 251 to 400 nM
Ki (human arginase I; [12]): 11 to 50 nM
Ki (human arginase II; [13]): 11 to 50 nM
Ki (human arginase II; [14]): 11 to 50 nM

CN(CCCC(N)(CCCCB(O)O)C(=O)O)Cc1ccc2ccccc2c1 (centres unmarked) [Example 120]
Ki (human arginase I; [11]): < 10 nM
Ki (human arginase I; [12]): 11 to 50 nM
Ki (human arginase II; [13]): < 10 nM
Ki (human arginase II; [14]): < 10 nM

NC(CCCCB(O)O)(CCCN1CCN(C(=O)c2ccc(Cl)c(Cl)c2)CC1)C(=O)O (centres unmarked) [Example 129, 2-amino-6-borono-(3-(4-(3,4-dichlorobenzoyl)piperazine-1-yl)propyl)hexanoic acid]
Ki (human arginase I; [11]): 11 to 50 nM
Ki (human arginase I; [12]): 51 to 100 nM
Ki (human arginase II; [13]): 251 to 400 nM
Ki (human arginase II; [14]): 51 to 100 nM
selectivity for arginase I over arginase II (Arg I and/or Arg II; at pH 7.5 / lower pHs): selectivity for arginase I over arginase II

N=C(NO)NCCC[C@H](N)C(=O)O [N-hydroxy-L-arginine, N^Ω-hydroxy-L-arginine]
tumor immunotherapy (prostate cancer): facilitates tumor immunotherapy
cell proliferation and apoptosis (breast cancer): inhibits cell proliferation and induces apoptosis
